The conditions of series [1]: cited from earlier work.
The nature of series [2]: Brain lipid-water partition coefficient log MAbrain (membrane affinity) on immobilized brain lipid membranes. Format: physicochemical. As to conditions: for logMA_brain: Table 6, parameter set for free fraction in brain. As for the experimental part: 440 mg of a brain lipid extract (Avanti Polar Lipids Inc., USA) are dissolved in 50 mL of chloroform. This solution is evaporated under reduced pressure in a glass flask in a rotating rotary evaporator, wherein a thin lipid film deposits on the wall.
The lipid film is swollen overnight in a water vapor atmosphere; subsequently, 88 mL of a buffer (20 mM HEPES, pH 7.0, 30 mM NaCl, 2 mM CaCl2) are added, and the lipid film is vesiculated by means of a high-pressure homogenizer.
5 g of the carrier material provided above are added to the vesicle solution thus produced and incubated overnight. Excess lipid is removed by washing three times with buffer (20 mM HEPES, pH 7.0, 30 mM NaCl, 2 mM CaCl2). Finally, this is followed by rebuffering in PBS (phosphate-buffered saline, 10 mM sodium phosphate, 0.9% NaCl, pH 7.4) and filling up to 25 mL with buffer. The suspension obtained is then used to determine the brain lipid-water partition coefficient, as described below.
To determine the brain lipid-water partition coefficient, a total of 5 wells of a 96-well microtiter plate are filled as follows: • Well 1: 405 μL PBS • Well 2: 375 μL PBS+30 μL suspension (see 2.) • Well 3: 357 μL PBS+48 μL suspension (see 2.) • Well 4: 338 μL PBS+77 μL suspension (see 2.) • Well 5: 405 μL PBS.
To each of these wells, 45 μL of a 500 μM solution of trifluoperazine in PBS/10% DMSO are added, and after mixing by resuspension, the solid body is separated from the supernatant by sedimentation. The concentration of the substance in the supernatant is quantified by UV measurement, and the brain lipid-water partition coefficient log MAbrain is calculated through the following equation: […]
In the equation are: • Vtotal Total volume per well • Vlipid Lipid volume per well • ctotal Substance concentration of wells 1 and 5 without binding partner • cwater Substance concentration in the supernatant of wells 2-4 with binding partner.
To determine the brain lipid-water partition coefficient, two 96-well microtiter plates are filled row by row as follows: • Row 1: 405 μL PBS • Row 2: 375 μL PBS+30 μL suspension (see 2.) • Row 3: 357 μL PBS+48 μL suspension (see 2.) • Row 4: 338 μL PBS+77 μL suspension (see 2.) • Row 5: 285 μL PBS+120 μL suspension (see 2.) • Row 6: 210 μL PBS+195 μL suspension (see 2.) • Row 7: 105 μL PBS+300 μL suspension (see 2.) • Row 8: 405 μL PBS.
A broad binding range is covered by this filling of the plates. […] After mixing by resuspension, the solid body is separated from the supernatant by sedimentation.
The concentration of the substance in the supernatant is quantified by HPLC, and the brain lipid-water partition coefficient log MAbrain is calculated through the abovementioned equation (4), wherein, in this case, Vtotal is the total volume per well, Vlipid is the lipid volume per well, ctotal is the substance concentration of rows 1 and 8 without binding partner, and cwater is the substance concentration in the supernatant of wells 2-7 with binding partner.

Series [3] in a line: log K^B/F, bound to free fraction in blood plasma calculated from KD^HSA and KD^AGP. Format: in vitro ADME. The conditions noted are these: Table 4; calculated with [HSA] 588.2 μM, [AGP] 24.4 μM. An excerpt: The log K^B/F value represents the logarithmized ratio of the bound fraction to the free fraction in blood plasma, which has been approximately calculated from the dissociation constants KD^AGP and KD^HSA according to:
[formula] • fu Free substance concentration in plasma • [drug]total^plasma Total substance concentration in plasma • [HSA]

Series [4] addresses HSA (human serum albumin) (Homo sapiens, UniProt P02768). Put plainly: HSA binding constants (TRANSIL HSA Binding Kit). The text has this: In the equation are: • [drug]bound: Concentration of bound substance • [drug]free: Concentration of free substance in the supernatant • [protein]: Protein concentration in the respective wells.
Series [5] has as its system T1, AGP (α1-acid glycoprotein).
T1 construct: fused on or other part: immobilised on silica beads (TRANSIL solid support)
The experiment in a line: AGP binding constants (TRANSIL AGP Binding Kit).

Series [6] can be described thus: log BB estimated by QSAR equation (9). As to conditions: Table 5; validation set, calculated by equation (9). The procedure:
To estimate the plasma-brain partition coefficients, a multilinear regression was carried out according to the equation:
log BB=A*log MAbrain+B*PSA+C*MW+D*log K^B/F+E. (6)

For series [7] the following is noted: Table 6; free fraction in brain; cited from earlier work.
Setting [8] is: Table 4, test set for multilinear regression.
The mark [9] stands for this setting: Table 1, PBS pH 7.4, quantified by HPLC.
[10] abbreviates: Table 4, repeated parameter set.
Where [11] appears, read: Table 5, values from the literature.

Here are results for 27 molecules from US20110065208A1, “DETERMINATION AND ESTIMATION OF ABSORPTION AND DISTRIBUTION OF SUBSTANCES IN BRAIN TISSUE” (SOVICELL GMBH, priority 2008, published 2011).

Read-outs that look alike come from different tables or passages of the source.

As a reminder, the Kd is the equilibrium constant for the complex coming apart.

Sequence of HSA (human serum albumin) (P02768 25-609): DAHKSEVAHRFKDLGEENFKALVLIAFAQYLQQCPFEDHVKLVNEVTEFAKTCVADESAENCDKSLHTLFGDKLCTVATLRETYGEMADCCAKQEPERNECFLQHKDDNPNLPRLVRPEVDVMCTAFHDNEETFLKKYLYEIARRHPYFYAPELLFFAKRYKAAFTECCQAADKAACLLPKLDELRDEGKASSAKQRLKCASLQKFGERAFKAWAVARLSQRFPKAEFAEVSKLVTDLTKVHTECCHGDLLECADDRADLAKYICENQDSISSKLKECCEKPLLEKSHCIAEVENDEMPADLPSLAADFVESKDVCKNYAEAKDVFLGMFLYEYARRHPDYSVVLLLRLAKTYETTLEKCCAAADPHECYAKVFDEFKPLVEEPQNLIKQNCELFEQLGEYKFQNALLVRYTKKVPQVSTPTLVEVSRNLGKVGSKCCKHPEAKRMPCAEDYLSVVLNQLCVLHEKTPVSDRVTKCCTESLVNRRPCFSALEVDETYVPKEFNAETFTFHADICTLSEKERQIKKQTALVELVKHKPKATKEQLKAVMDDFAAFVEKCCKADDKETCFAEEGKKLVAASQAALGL

On to `CC(=O)Oc1ccccc1C(=O)O` [Acetylsalicylic acid, acetylsalicylic acid], for which the logBB in series [1] (setting [8]) is −0.5. The logMAbrain in series [2] (setting [9]) and in series [2] (setting [10]) was 1.40 each time. Also, the “logK^B/F” value in series [3] is reported as 0.23. Also, the values for the Kd in series [4] and in series [5] were 360 µM and 460 µM, respectively.

On to `CN(C)CCC=C1c2ccccc2CCc2ccccc21` [Amitryptilline, amitryptilline], for which, in series [6], the logBB_calc was 1.38. Besides, in series [1] (setting [11]), the logBB is listed as 0.87. Moreover, in series [2], the logMA_brain is 2.94. Further, in series [7], the fu_brain is reported as 0.009.

With `Cc1cc(=O)n(-c2ccccc2)n1C` [Antipyrine, antipyrine], in series [1] (setting [8]), the logBB is −0.1. Also, the logMAbrain in series [2] (setting [9]) and in series [2] (setting [10]) was 1.33 each time. Also, the “logK^B/F” value in series [3] was −0.54. For the same molecule, the dissociation constant (Kd) in series [4] stood at 2700 µM; in series [5] (Table 3, quantified by HPLC, read-out: KD^AGP), 380 µM.

For the molecule `Cn1c(=O)c2c(ncn2C)n(C)c1=O` [Caffeine, caffeine], the logMAbrain in series [2] (setting [9]) and in series [2] (setting [10]) was 1.36 throughout. In addition, the logMA_brain in series [2] turned out to be 1.36. The molecule further registered a Kd in series [5] of 580 µM. Further, the fu_brain in series [7] is recorded as 0.52.

In the case of `NC(=O)N1c2ccccc2C=Cc2ccccc21` [Carbamazepine, carbamazepine], in series [6], the logBB_calc is −0.09. Moreover, in series [1] (setting [11]), the logBB is 0. The logMA_brain in series [2] was 1.79. Further, the fu_brain in series [7] is on record as 0.1185.

Consider `CN(C)CCCN1c2ccccc2Sc2ccc(Cl)cc21` [Chlorpromazine, chlorpromazine], for which the logMAbrain in series [2] (setting [9]) and in series [2] (setting [10]) was 3.70 each time. For the same molecule, the logMA_brain in series [2] is reported as 3.70. This molecule gave an equilibrium dissociation constant (Kd) in series [5] of 0.72 µM. Also, in series [7], the fu_brain is 0.002.

Take `CN/C(=N/CCSCc1nc[nH]c1C)NC#N` [Cimetidine, cimetidine]: in series [1] (setting [8]), the logBB is given as −1.42. The logMAbrain in series [2] (setting [9]) and in series [2] (setting [10]) was 1.80 throughout. The “logK^B/F” value in series [3] was −0.13. Moreover, the figures for the Kd in series [4] and in series [5] were 920 µM and 250 µM, respectively.

Regarding `Clc1cccc(Cl)c1N=C1NCCN1` [Clonidine, clonidine], the logBB in series [1] (setting [8]) is 0.11. The logMAbrain in series [2] (setting [9]) and in series [2] (setting [10]) was 1.30 each time. Further, the “logK^B/F” value in series [3] is recorded as −0.17. For the same molecule, the Kd is 1900 µM in series [4] and 69 µM in series [5].

`CNCCCN1c2ccccc2CCc2ccccc21` [Desipramine, desipramine]: the logBB in series [1] (setting [8]) is 1.2. Also, the Kd in series [4] stood at 200 µM; in series [5] it was 5.1 µM.

In the case of `CNCCC(Oc1ccc(C(F)(F)F)cc1)c1ccccc1` (stereo not shown) [Fluoxetine, fluoxetine], the logBB_calc in series [6] is reported as 1.29. In series [2], this molecule gave a logMA_brain of 3.52. Moreover, the fu_brain in series [7] is 0.004.

In turn, `O=C(CCCN1CCC(O)(c2ccc(Cl)cc2)CC1)c1ccc(F)cc1` [Haloperidol] returned a logMA_brain in series [2] of 2.7. Further, the fu_brain in series [7] is on record as 0.011.

As to `CC(C)Cc1ccc(C(C)C(=O)O)cc1` (stereo not shown) [Ibuprofen, ibuprofen], the logBB in series [1] (setting [8]) is −0.18. Also, the logMAbrain in series [2] (setting [9]) and in series [2] (setting [10]) was 1.70 in each case. Besides, the “logK^B/F” value in series [3] is 3.14. The Kd in series [5] came to 670 µM.

Regarding `CN(C)CCCN1c2ccccc2CCc2ccccc21` [Imipramine, imipramine], the logBB in series [1] (setting [8]) is 0.83. Moreover, the Kd is 220 µM in series [4] and 3.1 µM in series [5].

Take `COc1ccc2c(c1)c(CC(=O)O)c(C)n2C(=O)c1ccc(Cl)cc1` [Indomethacin, indomethacin]: the logBB in series [1] (setting [8]) was −1.26. The logMAbrain in series [2] (setting [9]) and in series [2] (setting [10]) was 2.30 throughout. The “logK^B/F” value in series [3] is 2.97. The molecule also gave a Kd in series [5] of 43 µM.

As for `CCN(CC)CC(=O)Nc1c(C)cccc1C` [Lidocaine, lidocaine], the logBB_calc in series [6] is recorded as −0.08.

For `CN1CCN2c3ccccc3Cc3ccccc3C2C1` (stereo not shown) [Mianserin, mianserin], the logBB_calc in series [6] was 1.47. Besides, the logBB in series [1] (setting [11]) is given as 0.99.

`CCCCC1C(=O)N(c2ccccc2)N(c2ccccc2)C1=O` [Phenylbutazone, phenylbutazone]: the logBB in series [1] (setting [8]) is −0.52. Besides, the Kd in series [5] was 70 µM.

`O=C1NC(=O)C(c2ccccc2)(c2ccccc2)N1` [Phenytoin]: the fu_brain in series [7] is 0.082.

On to `CCN(CC)CCOC(=O)c1ccc(N)cc1` [Procaine, procaine], for which the logBB_calc in series [6] is reported as −0.41. Further, the logBB in series [1] (setting [11]) is on record as 0.05.

With `CN(C)CCCN1c2ccccc2Sc2ccccc21` [Promazine, promazine], in series [1] (setting [8]), the logBB is on record as 1.23. The logMAbrain in series [2] (setting [9]) and in series [2] (setting [10]) was 3.20 in each case. In addition, in series [3], the “logK^B/F” value is recorded as 1.33. Moreover, the Kd in series [4] worked out at 99 µM; in series [5], 1.6 µM.

As for `CC(C)NCC(O)COc1cccc2ccccc12` (stereo not shown) [Propranolol, propranolol], the logBB in series [1] (setting [8]) is 0.64. In addition, the logMAbrain in series [2] (setting [9]) and in series [2] (setting [10]) was 2.70 throughout. In addition, the “logK^B/F” value in series [3] is 0.74. For the same molecule, the Kd in series [4] was found to be 610 µM; in series [5] it was 5.4 µM.

On to `C=C[C@H]1C[N@@]2CC[C@H]1C[C@@H]2[C@@H](O)c1ccnc2ccc(OC)cc12` [Quinidine, quinidine], for which the logMAbrain in series [2] (setting [9]) and in series [2] (setting [10]) was 2.10 each time. Also, the Kd in series [5] was 13 µM.

As for `CNC(=C[N+](=O)[O-])NCCSCc1ccc(CN(C)C)o1` [Ranitidine, ranitidine], the logBB in series [1] (setting [11]) is given as −1.23.

Regarding `O=C(O)c1ccccc1O` [Salicylic acid, salicylic acid], the logMAbrain in series [2] (setting [9]) and in series [2] (setting [10]) was 1.30 throughout. In addition, the “logK^B/F” value in series [3] is 1.37. Moreover, binding in series [5] was characterised by a dissociation constant (Kd) of 640 µM.

For `Cn1c(=O)c2[nH]cnc2n(C)c1=O` [Theophylline, theophylline], the Kd in series [5] came out at 810 µM.

In series [2], `CSc1ccc2c(c1)N(CCC1CCCCN1C)c1ccccc1S2` (stereo not shown) [Thioridazine] came in with a logMA_brain of 3.74. Moreover, the fu_brain in series [7] is 0.001.

Regarding `CN1CCN(CCCN2c3ccccc3Sc3ccc(C(F)(F)F)cc32)CC1` [Trifluoperazine, trifluoperazine], in series [1] (setting [8]), the logBB is given as 1.44. In addition, the “logMAbrain” value in series [2] (PBS pH 7.4, quantified by UV measurement, 5 wells) is 4.7; in series [2] (setting [9]) it was 4.70; in series [2] (setting [10]) it was 4.70. The logMA_brain in series [2] was found to be 4.70. For the same molecule, the “logK^B/F” value in series [3] is recorded as 2.17. In addition, the Kd was 12 µM in series [4] and 0.25 µM in series [5]. Moreover, in series [7], the fu_brain is given as 0.0007.
